From US20240239755A1, “SUBSTITUTED PYRIDAZINONES, SALTS OR N-OXIDES THEREOF AND THEIR USE AS HERBICIDALLY ACTIVE SUBSTANCES” (Bayer Aktiengesellschaft, priority 2021, published 2024)

Key:
Assay type in all cases: in vivo
Kochia scoparia (KCHSC) [1] = experiment: Herbicidal pre-emergence action, 1280 g/ha (Table A4); details: visual grading after ca. 3 weeks vs untreated controls
Outline: (§1)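 Weed seeds sown in sandy loam pots and covered with soil; compounds formulated as WP or EC applied to the soil surface in water with 0.5% additive at 600 L water/ha. Pots kept in a greenhouse under optimum growth conditions; damage visually graded after ca. 3 weeks versus untreated controls (0% = as control, 100% = plants dead).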

Kochia scoparia (KCHSC) [2] = experiment: Herbicidal pre-emergence action, 320 g/ha (Table C1); details: visual grading after ca. 3 weeks vs untreated controls
From the text: (§2) Seeds of mono- and dicotyledonous weed plants were sown in plastic pots (double sowings with one species of mono- and one species of dicotyledonous weed plants per pot), in sandy loam, and covered with soil. The compounds according to the invention, formulated in the form of wettable powders (WP) or as emulsifiable concentrates (EC), were applied to the surface of the covering soil as an aqueous suspension or as an emulsion, with the addition of 0.5% of an additive, at an application rate of 600 litres of water per hectare (converted). Following treatment, the pots were placed in a greenhouse and kept under optimum growth conditions for the test plants. The visual grading of the damage to the test plants was carried out after ca. 3 weeks in comparison to untreated controls (herbicidal effect in percent (%): 100% effect=plants have died, 0% effect=as control plants). Tables C1 to C6 below, show the effects of selected compounds of the general formula (I) according to Table 1 on various harmful plants using an application rate corresponding to 320 g/ha obtained by the experimental procedure mentioned above.

Veronica persica (VERPE) [3] = experiment: Herbicidal post-emergence action, 1280 g/ha, VERPE; details: visual grading vs untreated controls
Outline: (§3)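 Pot-grown weeds in sandy loam sprayed post-emergence at the single-leaf stage, 2–3 weeks after sowing, with WP or EC formulations plus 0.5% additive in 600 L water/ha at 1280 g/ha. After ca. 3 weeks in the greenhouse, damage scored visually as % effect versus untreated controls (100% = plants dead).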

[4] = tested on: Matricaria inodora (MATIN); experiment: Herbicidal pre-emergence action, 1280 g/ha (Table A6); details: visual grading after ca. 3 weeks vs untreated controls
Outline: as §1

Stellaria media (STEME) [5] = experiment: Herbicidal post-emergence action, 1280 g/ha (Table B9); details: visual assessment after ca. 3 weeks vs untreated controls
Outline: (§4)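 Read-out is visual herbicidal effect in percent against untreated controls (100% = dead plants, 0% = like controls), scored about 3 weeks after treatment. Plants at the single-leaf stage were sprayed on green parts with aqueous WP or EC preparations containing 0.5% additive, 600 L water/ha.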

[6] = tested on: Abutilon theophrasti (ABUTH); experiment: Herbicidal post-emergence action, 1280 g/ha (Table B1); details: visual assessment after ca. 3 weeks vs untreated controls
Outline: as §4

Lolium rigidum (LOLRI) [7] = experiment: Herbicidal post-emergence action, 1280 g/ha (Table B5); details: visual assessment after ca. 3 weeks vs untreated controls
Outline: as §4

Kochia scoparia (KCHSC) [8] = experiment: Herbicidal post-emergence action, 1280 g/ha (Table B4); details: visual assessment after ca. 3 weeks vs untreated controls
Outline: as §4

[9] = tested on: Amaranthus retroflexus (AMARE); experiment: Herbicidal post-emergence action, 1280 g/ha, AMARE; details: visual grading vs untreated controls
Outline: as §3

[10] = tested on: Abutilon theophrasti (ABUTH); experiment: Herbicidal pre-emergence action, 1280 g/ha (Table A1); details: visual grading after ca. 3 weeks vs untreated controls
Outline: as §1

Lolium rigidum (LOLRI) [11] = experiment: Herbicidal pre-emergence action, 1280 g/ha (Table A5); details: visual grading after ca. 3 weeks vs untreated controls
Outline: as §1

Stellaria media (STEME) [12] = experiment: Herbicidal pre-emergence action, 1280 g/ha (Table A9); details: visual grading after ca. 3 weeks vs untreated controls
Outline: as §1

Poa annua (POAAN) [13] = experiment: Herbicidal pre-emergence action, 320 g/ha, POAAN; details: visual grading after ca. 3 weeks
From the text: as §2, with “plants).” for “plants). Tables C1 to C6 below, show the effects of selected compounds of the general formula (I) according to Table 1 on various harmful plants using an application rate corresponding to 320 g/ha obtained by the experimental procedure mentioned above.”
(§5) Tables C1 to C6 below, show the effects of selected compounds of the general formula (I) according to Table 1 on various harmful plants using an application rate corresponding to 320 g/ha obtained by the experimental procedure mentioned above.

Lolium rigidum (LOLRI) [14] = experiment: Herbicidal post-emergence action, 320 g/ha, LOLRI; details: visual grading after ca. 3 weeks
Outline: (§6)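 Weeds were sown in sandy loam pots and sprayed post-emergence at the single-leaf stage, 2 to 3 weeks after sowing, with WP or EC formulations in water plus 0.5% additive at 600 L/ha. Visual % injury versus untreated controls was scored after ca. 3 weeks in the greenhouse.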

Poa annua (POAAN) [15] = experiment: Herbicidal pre-emergence action, 1280 g/ha (Table A7); details: visual grading after ca. 3 weeks vs untreated controls
Outline: as §1

[16] = tested on: Abutilon theophrasti (ABUTH); experiment: Herbicidal post-emergence action, 320 g/ha, ABUTH; details: visual grading after ca. 3 weeks
Outline: as §6

Setaria viridis (SETVI) = experiment: Herbicidal pre-emergence action, 1280 g/ha (Table A8); details: visual grading after ca. 3 weeks vs untreated controls
Outline: as §1

Stellaria media (STEME) [17] = experiment: Herbicidal pre-emergence action, 320 g/ha, STEME; details: visual grading after ca. 3 weeks
Outline: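 Weed seeds sown in sandy loam pots; WP or EC formulations applied pre-emergence to the covering soil surface at 320 g/ha with 0.5% additive in 600 L water/ha. Greenhouse growth; visual damage scored after ca. 3 weeks versus untreated controls (100% = plants died, 0% = as control).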

[18] = tested on: Matricaria inodora (MATIN); experiment: Herbicidal post-emergence action, 1280 g/ha (Table B6); details: visual assessment after ca. 3 weeks vs untreated controls
Outline: as §4

Kochia scoparia (KCHSC) [19] = experiment: Herbicidal post-emergence action, 320 g/ha, KCHSC; details: visual grading after ca. 3 weeks
Outline: as §6

Stellaria media (STEME) [20] = experiment: Herbicidal post-emergence action, 320 g/ha, STEME; details: visual grading after ca. 3 weeks
Outline: as §6

[21] = tested on: Amaranthus retroflexus (AMARE); experiment: Herbicidal pre-emergence action, 1280 g/ha (Table A11); details: visual grading after ca. 3 weeks vs untreated controls
Outline: as §1

[22] = tested on: Amaranthus retroflexus (AMARE); experiment: Herbicidal pre-emergence action, 320 g/ha, AMARE; details: visual grading after ca. 3 weeks
From the text: as §2, with “plants).” for “plants). Tables C1 to C6 below, show the effects of selected compounds of the general formula (I) according to Table 1 on various harmful plants using an application rate corresponding to 320 g/ha obtained by the experimental procedure mentioned above.”
as §5

[23] = tested on: Amaranthus retroflexus (AMARE); experiment: Herbicidal post-emergence action, 320 g/ha, AMARE; details: visual grading after ca. 3 weeks
Outline: as §6

Veronica persica (VERPE) [24] = experiment: Herbicidal post-emergence action, 320 g/ha, VERPE; details: visual grading after ca. 3 weeks
Outline: as §6

| Structure (SMILES) | herbicidal effect KCHSC (Kochia scoparia (KCHSC) [1]) [%] | herbicidal effect KCHSC (Kochia scoparia (KCHSC) [2]) [%] | herbicidal effect VERPE (Veronica persica (VERPE) [3]) [%] | herbicidal effect MATIN [4] [%] | herbicidal effect STEME (Stellaria media (STEME) [5]) [%] | herbicidal effect ABUTH [6] [%] | herbicidal effect LOLRI (Lolium rigidum (LOLRI) [7]) [%] | herbicidal effect KCHSC (Kochia scoparia (KCHSC) [8]) [%] | herbicidal effect AMARE [9] [%] | herbicidal effect LOLRI (Lolium rigidum (LOLRI) [11]) [%] | herbicidal effect STEME (Stellaria media (STEME) [12]) [%] | herbicidal effect STEME (Stellaria media (STEME) [17]) [%] | herbicidal effect MATIN [18] [%] | herbicidal effect STEME (Stellaria media (STEME) [20]) [%] | herbicidal effect AMARE [21] [%] | other results |
| --- | --- | --- | --- | --- | --- | --- | --- | --- | --- | --- | --- | --- | --- | --- | --- | --- |
| Cc1nn(C)c(=O)c(Oc2ccc(Cl)cc2)c1O [Example I-002] | 90 | 90 | – | – | – | – | – | – | – | – | – | – | – | – | – | – |
| CCOC(=O)Oc1c(C)nn(C)c(=O)c1Oc1ccccc1C1CC1 [Example I-012] | 100 | – | 90 | 90 | 100 | 100 | 100 | 100 | 90 | 100 | 100 | 90 | 100 | 100 | 100 | herbicidal effect ABUTH [10]: 100%; herbicidal effect POAAN (Poa annua (POAAN) [13]): 90%; herbicidal effect LOLRI (Lolium rigidum (LOLRI) [14]): 100%; herbicidal effect POAAN (Poa annua (POAAN) [15]): 90%; herbicidal effect ABUTH [16]: 100%; herbicidal effect SETVI (Setaria viridis (SETVI)): 100%; herbicidal effect KCHSC (Kochia scoparia (KCHSC) [19]): 100%; herbicidal effect AMARE [22]: 100% |
| Cc1nn(C)c(=O)c(Oc2cc(F)c(F)cc2C2CC2)c1OC(=O)C(C)C [Example I-102] | 90 | 90 | 90 | 100 | 100 | 100 | 90 | 100 | 100 | 90 | 100 | 90 | 100 | 90 | 100 | herbicidal effect AMARE [23]: 90%; herbicidal effect VERPE (Veronica persica (VERPE) [24]): 90% |
